Values quoted from earlier work, collected in patent US11369617B2, “Prostacyclin analogue formulations” (CAMURUS AB, priority 2016, dated 2022).

Details: regular s.c. administration

administration-site pain, patients experiencing it: 85 % of patients
Compound: CCCCC[C@H](O)CC[C@@H]1[C@H]2Cc3cccc(OCC(=O)O)c3C[C@H]2C[C@H]1O [treprostinil]
withdrawals due to adverse events (almost all due to site pain): 23 % of the long-term study population
